Data from ChEMBL document CHEMBL1201862, “PubChem BioAssay data set” (2004).
The source made the active and inactive calls.

Legend:
[1] = target: T1, Rac GTPase-activating protein 1 (Homo sapiens, UniProt Q9H0H5); test: MgcRacGAP GTPase-activating activity inhibitors, confirmation, biochemical, ADP Hunter fluorescence, primary and confirmatory (AID 624330); type: functional
T1 sequence (Q9H0H5 whole entry): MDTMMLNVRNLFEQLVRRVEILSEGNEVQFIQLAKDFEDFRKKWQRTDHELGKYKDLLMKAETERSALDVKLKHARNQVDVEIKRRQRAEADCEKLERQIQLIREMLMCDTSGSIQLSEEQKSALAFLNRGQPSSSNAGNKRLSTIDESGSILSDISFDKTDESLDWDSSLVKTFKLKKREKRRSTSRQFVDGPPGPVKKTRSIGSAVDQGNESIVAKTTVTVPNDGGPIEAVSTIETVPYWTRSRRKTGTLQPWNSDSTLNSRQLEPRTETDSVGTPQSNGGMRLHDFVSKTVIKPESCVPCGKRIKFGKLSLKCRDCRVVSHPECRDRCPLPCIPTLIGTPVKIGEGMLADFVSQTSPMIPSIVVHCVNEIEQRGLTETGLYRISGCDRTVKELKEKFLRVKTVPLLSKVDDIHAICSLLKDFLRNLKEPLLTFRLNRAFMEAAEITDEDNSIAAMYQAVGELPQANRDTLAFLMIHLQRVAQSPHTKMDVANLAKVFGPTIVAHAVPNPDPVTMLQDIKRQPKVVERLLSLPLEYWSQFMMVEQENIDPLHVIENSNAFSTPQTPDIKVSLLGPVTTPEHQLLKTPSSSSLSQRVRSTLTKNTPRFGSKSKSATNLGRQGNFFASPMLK

Cytochrome P450 2D6 = Cytochrome P450 2D6 (Homo sapiens, UniProt P10635);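 note: CYP2D6 member of a cytochrome P450 panel assay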
Chain of Cytochrome P450 2D6 (P10635 whole entry): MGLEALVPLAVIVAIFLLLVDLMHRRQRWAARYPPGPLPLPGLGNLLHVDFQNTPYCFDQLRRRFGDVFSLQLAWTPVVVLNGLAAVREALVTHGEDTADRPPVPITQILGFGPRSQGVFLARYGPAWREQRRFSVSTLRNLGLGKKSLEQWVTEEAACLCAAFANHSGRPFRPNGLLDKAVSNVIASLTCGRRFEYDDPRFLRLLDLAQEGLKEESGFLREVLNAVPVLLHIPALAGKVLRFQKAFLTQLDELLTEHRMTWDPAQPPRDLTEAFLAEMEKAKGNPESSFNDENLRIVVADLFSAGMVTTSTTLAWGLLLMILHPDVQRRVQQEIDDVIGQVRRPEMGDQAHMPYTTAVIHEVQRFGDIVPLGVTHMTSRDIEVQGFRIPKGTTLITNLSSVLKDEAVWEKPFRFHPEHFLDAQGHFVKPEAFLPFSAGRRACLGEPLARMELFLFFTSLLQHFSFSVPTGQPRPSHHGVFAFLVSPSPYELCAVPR

cells = type: functional
Cytochrome P450 2C19 = Cytochrome P450 2C19 (Homo sapiens, UniProt P33261); test: Cytochrome panel assay with activity outcomes. Panel member name: p450-cyp2c19 Compounds with AC50 equal or less than 10 uM are considered active; type: functional
Chain of Cytochrome P450 2C19 (P33261 whole entry): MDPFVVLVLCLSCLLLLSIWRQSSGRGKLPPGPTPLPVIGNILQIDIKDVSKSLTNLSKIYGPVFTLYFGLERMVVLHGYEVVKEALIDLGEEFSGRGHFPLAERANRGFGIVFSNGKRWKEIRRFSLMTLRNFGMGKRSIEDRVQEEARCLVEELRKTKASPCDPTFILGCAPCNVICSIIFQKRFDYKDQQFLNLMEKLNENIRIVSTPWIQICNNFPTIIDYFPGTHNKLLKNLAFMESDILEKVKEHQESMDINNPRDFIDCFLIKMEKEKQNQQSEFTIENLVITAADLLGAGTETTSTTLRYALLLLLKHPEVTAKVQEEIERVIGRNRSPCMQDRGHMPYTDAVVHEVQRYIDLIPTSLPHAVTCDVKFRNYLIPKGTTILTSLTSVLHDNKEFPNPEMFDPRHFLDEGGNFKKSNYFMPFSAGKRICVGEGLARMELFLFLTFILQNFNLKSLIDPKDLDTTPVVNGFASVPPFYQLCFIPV

Cytochrome P450 2C9 = Cytochrome P450 2C9 (Homo sapiens, UniProt P11712)
Chain of Cytochrome P450 2C9 (P11712 whole entry): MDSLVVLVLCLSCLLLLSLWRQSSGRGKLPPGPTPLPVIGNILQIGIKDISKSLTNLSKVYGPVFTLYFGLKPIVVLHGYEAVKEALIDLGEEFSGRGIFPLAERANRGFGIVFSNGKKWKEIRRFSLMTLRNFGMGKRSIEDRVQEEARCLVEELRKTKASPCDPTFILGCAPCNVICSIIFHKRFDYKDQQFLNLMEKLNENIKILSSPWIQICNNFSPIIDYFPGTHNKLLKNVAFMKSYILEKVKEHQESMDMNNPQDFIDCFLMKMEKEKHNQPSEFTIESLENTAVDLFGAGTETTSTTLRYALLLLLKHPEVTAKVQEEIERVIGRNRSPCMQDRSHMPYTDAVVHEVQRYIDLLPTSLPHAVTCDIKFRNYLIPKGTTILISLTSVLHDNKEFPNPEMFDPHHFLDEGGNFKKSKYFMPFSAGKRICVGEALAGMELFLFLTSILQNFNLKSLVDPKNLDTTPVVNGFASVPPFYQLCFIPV

[2] = system: Streptococcus sp. 'group A'; test: growth inhibition of control SK(-) GAS strain, dose response, counter-screen for streptokinase expression inhibitor project, luminescence, kanamycin, BacTiterGlo, confirmation (AID 1900); type: functional, organism-based
Streptokinase A = target: T2, Streptokinase A (Streptococcus pyogenes serotype M1, UniProt P10520); test: S. pyogenes streptokinase expression inhibitors, potency, dose response, plasminogen activation absorbance, OD405 (AID 1914); type: functional, Streptococcus pyogenes M1 GAS;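 note: secreted streptokinase activity via plasminogen activation per viability signal from cell pellet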
T2 sequence (P10520 whole entry): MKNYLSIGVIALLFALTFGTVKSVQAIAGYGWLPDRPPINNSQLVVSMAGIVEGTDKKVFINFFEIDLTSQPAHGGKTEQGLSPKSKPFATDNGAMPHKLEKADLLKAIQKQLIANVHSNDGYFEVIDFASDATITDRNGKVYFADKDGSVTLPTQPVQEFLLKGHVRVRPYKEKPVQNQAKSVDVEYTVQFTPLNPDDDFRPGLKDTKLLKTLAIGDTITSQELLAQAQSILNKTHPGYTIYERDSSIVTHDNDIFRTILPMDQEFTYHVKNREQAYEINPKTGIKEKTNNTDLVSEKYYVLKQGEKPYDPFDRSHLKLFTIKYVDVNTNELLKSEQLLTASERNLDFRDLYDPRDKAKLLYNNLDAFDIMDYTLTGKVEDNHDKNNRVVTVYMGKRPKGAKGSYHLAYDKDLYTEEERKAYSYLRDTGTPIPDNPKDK

[3] = inhibitors of intracellular T. cruzi replication, confirmation, NIH3T3 host cells, beta-gal luminescence (AID 2044); type: functional, cell-based;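 note: intracellular parasites grown in NIH/3T3 mouse fibroblasts as host cells; luminescent beta-galactosidase reporter signal from transgenic T. cruzi replicating inside host cells; inhibitors lower the luminescence signal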
[4] = cytotoxicity toward NIH3T3 fibroblasts, dose response, counter-screen, cell-based, ATP luminescence, mouse fibroblasts (AID 2010); type: functional;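 note: cells exposed to compound for about 90 hours before reading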
Streptococcus = test: Group A Streptococcus viability loss, dose response, counter-screen for streptokinase expression inhibitor project, luminescence, BacTiterGlo (AID 1915); type: functional, organism-based;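 note: potency for reduction of bacterial viability or growth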
Cytochrome P450 3A4 = Cytochrome P450 3A4 (Homo sapiens, UniProt P08684);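 note: CYP3A4 tested as one member of a cytochrome P450 panel screen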
Chain of Cytochrome P450 3A4 (P08684 whole entry): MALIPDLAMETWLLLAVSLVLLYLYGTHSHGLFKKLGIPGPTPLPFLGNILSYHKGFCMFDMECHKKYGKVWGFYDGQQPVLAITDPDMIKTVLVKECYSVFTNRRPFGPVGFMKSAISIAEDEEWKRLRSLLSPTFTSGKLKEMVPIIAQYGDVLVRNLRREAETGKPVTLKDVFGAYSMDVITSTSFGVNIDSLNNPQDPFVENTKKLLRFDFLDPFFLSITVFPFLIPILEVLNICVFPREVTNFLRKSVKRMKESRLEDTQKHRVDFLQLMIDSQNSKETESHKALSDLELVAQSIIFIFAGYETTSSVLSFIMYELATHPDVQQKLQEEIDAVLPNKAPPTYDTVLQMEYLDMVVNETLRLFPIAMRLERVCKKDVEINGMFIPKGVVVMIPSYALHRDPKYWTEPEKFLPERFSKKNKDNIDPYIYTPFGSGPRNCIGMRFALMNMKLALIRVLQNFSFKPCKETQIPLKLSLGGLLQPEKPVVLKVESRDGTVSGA

[5] = Luminescence Cell-Based Dose Response HTS to Identify Activators of Luciferase Translation or Activity in H4 […] Cells. [Related pubchem assays: 1829 (Project Summary), 1814 (Primary HTS)]; type: functional
H4 = test: Luminescence Cell-Based Dose Response HTS to Identify Activators of 5'UTR Stem-Loop Driven Prion Protein mRNA Translation in H4 Neuroglioblastoma Cells. [Related pubchem assays: 1829 (Project Summary), 1814 (Primary HTS)]; type: functional; conditions: Homo sapiens
[6] = target: T3, Corticotropin-releasing factor receptor 2/Corticotropin-releasing factor-binding protein (Homo sapiens, UniProt P24387+Q13324); test: Dose Response confirmation of uHTS hits for small molecule antagonists of the CRF-binding protein and CRF-R2 receptor complex.; type: functional; conditions: read-out: IC50_Mean
T3 sequence (Q13324 whole entry): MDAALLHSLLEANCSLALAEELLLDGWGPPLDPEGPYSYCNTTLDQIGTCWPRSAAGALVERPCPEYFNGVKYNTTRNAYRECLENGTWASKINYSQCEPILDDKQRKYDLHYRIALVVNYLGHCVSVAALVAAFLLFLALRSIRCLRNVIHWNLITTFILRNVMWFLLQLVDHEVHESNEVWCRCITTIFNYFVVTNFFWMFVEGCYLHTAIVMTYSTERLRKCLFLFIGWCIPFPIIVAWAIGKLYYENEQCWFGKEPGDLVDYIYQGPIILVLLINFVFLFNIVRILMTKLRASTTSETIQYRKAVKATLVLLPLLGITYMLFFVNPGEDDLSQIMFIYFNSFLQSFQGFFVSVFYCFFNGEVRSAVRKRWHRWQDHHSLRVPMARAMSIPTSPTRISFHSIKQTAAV
T3 sequence (P24387 whole entry): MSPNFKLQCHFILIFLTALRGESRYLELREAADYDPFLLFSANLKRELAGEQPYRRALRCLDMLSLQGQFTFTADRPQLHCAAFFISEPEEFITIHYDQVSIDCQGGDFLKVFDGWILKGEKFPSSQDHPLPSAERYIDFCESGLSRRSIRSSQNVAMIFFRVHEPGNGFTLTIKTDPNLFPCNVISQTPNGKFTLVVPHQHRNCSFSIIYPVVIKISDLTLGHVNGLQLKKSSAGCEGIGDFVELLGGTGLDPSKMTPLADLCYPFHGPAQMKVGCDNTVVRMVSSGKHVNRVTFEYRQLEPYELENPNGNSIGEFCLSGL

[7] = target: T3, Corticotropin-releasing factor receptor 2/Corticotropin-releasing factor-binding protein; test: activators of CRF receptor 2 with binding protein – uHTS hits, confirmation (AID 602473); type: functional; conditions: read-out: EC50_Mean

## COc1cc(/C=N/NC(=O)c2ccc(N3CCCC3=O)cc2)ccc1O
[1]
  IC50: 30.8 µM (active)

## COc1cc(CNCc2cccs2)ccc1OCC(=O)NC(C)(C)C
Cytochrome P450 2D6
  AC50: 10 µM (inconclusive)

## COc1ccc(-c2cc(=O)oc(-c3cccc(C)c3)n2)cc1
cells
  IC50: 35.9 µM (active)

## CCc1ccc(N(C(=O)CNC(=O)c2cccs2)C(C(=O)NC(C)(C)C)c2cc(OC)c(OC)c(OC)c2)cc1 (configuration not stated)
Cytochrome P450 2C19; read-out: AC50
  AC50: 0.00794 µM (inconclusive)
Cytochrome P450 2C9
  AC50: 28.2 µM (inconclusive)

## C/C(=N\NC(=O)c1cc2ccccc2cc1O)c1cccs1
[2]
  EC50: 18.3 µM (active)
Streptokinase A
  EC50: > 150 µM (not active)
[3]
  EC50: 44.7 µM (active)
[4]
  EC50: > 60 µM (not active)
Streptococcus
  EC50: 59.6 µM (active)

## Fc1cccc2sc(N3CCCC3)nc12
cells
  IC50: > 50 µM (active)

## COC(=O)c1cc2c(ccc3ccccc32)oc1=O
cells
  IC50: 6.54 µM (active)

## O=C(c1cn(-c2ccccc2)nc1-c1cccs1)N1CCOCC1
Cytochrome P450 2C19; read-out: AC50
  AC50: 39.8 µM (inconclusive)
Cytochrome P450 2C9
  AC50: 39.8 µM (inconclusive)

## O=C(Nc1cccc(C(F)(F)F)c1)c1cc2c(=O)c3ccccc3oc2nc1C(F)(F)F
[2]
  EC50: 18.7 µM (active)
Streptokinase A
  EC50: 43.3 µM (inconclusive)
Streptococcus
  EC50: 65.1 µM (active)

## O=C(CCNc1cccc(Cl)c1)c1cccs1
cells
  IC50: 20 µM (active)
Cytochrome P450 2D6
  AC50: 22.4 µM (inconclusive)
Cytochrome P450 2C9
  AC50: 20 µM (inconclusive)

## O=C(CCCC(=O)c1ccccc1)Nc1ccc(O)cc1
[1]
  IC50: 15.8 µM (active)

## N#CCSc1nc2ccc(N3CCOCC3)cc2c(=O)n1CCc1ccccc1
[2]
  EC50: 7.19 µM (active)
Streptokinase A
  EC50: > 150 µM (not active)
Streptococcus
  EC50: 13.1 µM (active)

## O=C(COc1ccc(Nc2ccccc2)cc1)OCC(=O)N1CCCCC1
cells
  IC50: 2.49 µM (active)
[1]
  IC50: 98.2 µM (active)

## CC1CCN(CCc2nc3cc(NC(=O)NC4CCCCC4)ccc3n2C)CC1
Cytochrome P450 2D6
  AC50: 25.1 µM (inconclusive)

## CCCCNC(=O)Nc1nnc(-c2ccc(Cl)cc2)o1
cells
  IC50: 13.2 µM (active)

## CCC[C@@H]1C[C@@]1(CCC)C(NS(=O)(=O)c1cccc2cccnc12)c1ccc(Cl)cc1 (some centres not stated)
Cytochrome P450 2D6
  AC50: 39.8 µM (inconclusive)

## COc1cccc(/C=N\NC(=O)c2cc(OCC(F)(F)F)ccc2OCC(F)(F)F)c1
Cytochrome P450 2C19; read-out: AC50
  AC50: 0.891 µM (inconclusive)
Cytochrome P450 3A4
  AC50: 35.5 µM (inconclusive)

## Clc1cc(Br)ccc1OCCOCCN1CCCC1
[3]
  EC50: 1.46 µM (active)
[4]
  EC50: > 60 µM (not active)
[1]
  IC50: 135 µM (active)

## O=S(=O)(Nc1nc2ccccc2nc1Cl)c1ccc2ccccc2c1
[2]
  EC50: 9.62 µM (active)
Streptokinase A
  EC50: 15.1 µM (active)
Streptococcus
  EC50: > 150 µM (not active)

## CCOC(=O)c1cnn(-c2nc(-c3ccccc3)cs2)c1C(F)(F)F
[2]
  EC50: 14.6 µM (active)
Streptokinase A
  EC50: 15.6 µM (active)
Streptococcus
  EC50: > 150 µM (not active)

## CC(=O)n1c(COS(C)(=O)=O)nc2ccccc21
Cytochrome P450 2D6
  AC50: 5.01 µM (inconclusive)
Cytochrome P450 3A4
  AC50: 3.16 µM (inconclusive)

## O=C(CNC(=O)c1ccccn1)N/N=C/c1ccccc1
Cytochrome P450 2C19; read-out: AC50
  AC50: 17.8 µM (inconclusive)

## CCOC(=O)C(C)(C)n1nnc(-c2ccc([N+](=O)[O-])cc2)n1
cells
  IC50: 45.9 µM (active)

## COc1ccc(OC(=O)c2cc(S(=O)(=O)N3CCCC3)ccc2Cl)cc1
[1]
  IC50: 63 µM (active)

## CCN(CC)c1ccc(NC(=O)COC(=O)CCC(=O)c2cccs2)cc1
[1]
  IC50: 74.4 µM (active)

## CCSc1ncc(/C=N/Nc2ccc(F)cc2)n1C
Cytochrome P450 2C19; read-out: AC50
  AC50: 0.0794 µM (inconclusive)
Cytochrome P450 3A4
  AC50: 1.58 µM (inconclusive)

## CN(C)/C=N/c1ncc(C(=O)c2ccccc2)s1
[5]
  EC50: 0.251 µM (active)
H4
  EC50: 119 µM (active)

## CC(=O)Nc1cccc(-c2csc(NCc3ccccc3)n2)c1
[1]
  IC50: 65 µM (active)

## CCOC(=O)c1[nH]c(COC(=O)CCOc2ccccc2OC)c(C(=O)OCC)c1C
Cytochrome P450 2D6
  AC50: 15.8 µM (inconclusive)

## CC(C)(C)c1ccc(OCCC(=O)OCC(=O)NC2CC2)cc1
cells
  IC50: 48.5 µM (active)

## O=C(Oc1ccccc1)c1ccc(NC(=O)c2ccco2)cc1
cells
  IC50: 4.4 µM (active)
[6]
  IC50: > 47.1 µM (inactive)
[7]
  EC50: > 53 µM (inactive)

## O=c1c2ccccc2nc2oc3ccccc3n12
[5]
  EC50: 0.123 µM (active)
H4
  EC50: 0.139 µM (active)

## O=C1/C(=C/c2cccnc2)S/C(=N/Cc2ccccc2)N1Cc1ccccc1
[2]
  EC50: 21.6 µM (active)
Streptokinase A
  EC50: 14.7 µM (active)
[3]
  EC50: 1.66 µM (active)
[4]
  EC50: > 60 µM (not active)
Streptococcus
  EC50: > 150 µM (not active)

## CCOC(=O)C(=NCCOC)NNc1cc(Cl)ccc1Cl
cells
  IC50: > 50 µM (active)

## Fc1ccc(CSc2nnc(-c3ccccn3)o2)cc1
[5]
  EC50: 0.103 µM (active)
H4
  EC50: 0.175 µM (active)

## Cc1cc(C)c(OCCCCN2CCC(C)CC2)c(Br)c1
[1]
  IC50: 212 µM (active)

## COc1ccc(COC(=O)N/N=C2/C[C@@H](O)[C@@H](O)[C@@H]3[C@@H]4C(=O)N(c5cccc(Oc6ccccc6)c5)C(=O)[C@H]4CC[C@H]23)cc1
Cytochrome P450 2D6
  AC50: 2.51 µM (inconclusive)

## CCCC1CCC(c2ccc(C(N)=O)cc2)CC1 (configuration not stated)
Cytochrome P450 2C19
  AC50: inconclusive
Cytochrome P450 2C9
  AC50: 0.0158 µM (inconclusive)

## NNc1nc(-c2ccccc2)c2cc(Br)ccc2n1
[2]
  EC50: 10.1 µM (active)
Streptokinase A
  EC50: > 150 µM (not active)
Streptococcus
  EC50: 41.8 µM (active)

## Cc1cc(OCc2ccc([N+](=O)[O-])cc2)c2c3c(c(=O)oc2c1)CCCC3
Cytochrome P450 2D6
  AC50: 3.16 µM (inconclusive)
Cytochrome P450 3A4
  AC50: 2.82 µM (inconclusive)

## COc1ccc(-c2cnnc(CCCn3ccnc3-c3ccccc3)n2)cc1
Cytochrome P450 2C19; read-out: AC50
  AC50: 7.94 µM (inconclusive)
Cytochrome P450 2C9
  AC50: 0.0126 µM (inconclusive)

## O=C(NN=Cc1ccc(O)cc1O)c1ccccc1NS(=O)(=O)c1cccs1
[1]
  IC50: 110 µM (active)

## O/C(=C\C=N\c1ccccc1O)c1ccco1
cells
  IC50: 4.76 µM (active)

## O=C(NCc1ccc(C(F)(F)F)cc1)c1ccc2c(c1)S(=O)(=O)c1ccccc1C2=O
[2]
  EC50: > 150 µM (not active)
Streptokinase A
  EC50: > 150 µM (not active)
Streptococcus
  EC50: > 150 µM (not active)
